In patent US7737250B2, “Peptides for treating axonal damage, inhibition of neurotransmitter release and pain transmission, and blocking calcium influx in neurons” (Mount Sinai School of Medicine of New York University, priority 2003, dated 2010):

Tested on: complex containing L1-CAM, ankyrin B and Cav2.2
Assay: Co-precipitation of L1-CAM and ankyrin B with Cav2.2 channel protein from DRG neurons
Format: cell-based
Conditions: chick DRG neurons treated with saline; peptide pretreatment
Description: Co-precipitation: 1×10^6 DRG cells were used for each condition. DRG neurons were exposed to control solution containing 100 μM bicuculline or 100 μM GABA in the presence of 100 μM bicuculline. After agonist treatment, DRG neurons were lysed with ice-cold buffer (phosphate buffered saline, pH 7.4, containing 250 μM sodium pervanadate, 1% (v/v) NP-40, 1 mM Pefabloc, 1 mM EDTA, 1 mM EGTA, 10 μg/ml pepstatin, 10 μg/ml leupeptin, and 100 μg/ml soybean trypsin inhibitor, 100 μg/ml calpain I and 100 μg/ml calpain II inhibitors. The α1subunit of the Cav2.2 channel was immunoprecipitated as previously described (Schiff, M. L et al., (2000). Nature 408:723-726.).
Cell culture, transmitter application: Cell culture and transmitter application, were performed as described in Example 10, supra. For experiments determining the effect of activation of GABAB receptors upon L1-CAM-ankyrin-calcium channel interaction in DRG neurons, calcium channels were precipitated from DRG neurons treated with saline or baclofen for 20 seconds using anti-pan alpha 1 antibody and then immunoblotted for ankyrin (anti-ankyrin B antibody) or L1-CAM (8D9 anti-NgCAM).

RQIKIWFQNRRMKWKKQFNEDGSFIGQF [AP-YF] was tested, and the “co-precipitation of L1-CAM and ankyrin B with Cav2.2 channel protein” value was “abolished the interaction”.

In the case of “RQIKIWFQNRRMKWKKFQGIFSGDENFQ [AP-Scramble]”, the “co-precipitation of L1-CAM and ankyrin B with Cav2.2 channel protein” value is reported as “not”.
